Laboratory results published in patent US8916555B2, “3,5-diaminopyrazole kinase inhibitors” (Axikin Pharmaceuticals, Inc., priority 2012, dated 2014).

Tests used:
[1] = target: T1, kinase domain protein of RC kinase (Homo sapiens, UniProt Q56UN5); experiment: Enzymatic assay for kinase inhibitory activity (Crebtide substrate, LANCE readout), kinase domain protein; assay type: biochemical; conditions: test compound 1 μM, ATP 1 μM, Crebtide 50 nM
T1 sequence (Q56UN5 1061-1324 limits assumed): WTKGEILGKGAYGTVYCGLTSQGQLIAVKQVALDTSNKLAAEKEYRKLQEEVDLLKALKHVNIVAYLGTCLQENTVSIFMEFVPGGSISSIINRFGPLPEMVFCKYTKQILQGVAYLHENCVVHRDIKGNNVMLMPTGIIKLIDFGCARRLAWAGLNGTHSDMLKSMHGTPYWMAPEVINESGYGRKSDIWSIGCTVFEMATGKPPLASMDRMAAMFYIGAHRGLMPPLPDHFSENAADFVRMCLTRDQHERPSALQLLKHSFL
Method: Solutions of a test compound, Crebtide (a substrate), a kinase, and ATP were prepared using 1×MAPK Buffer (50 mM HEPES, 1 mM EGTA, […], 10 mM MgCl2, 2 mM DTT, and 0.01% Tween 20).
To each well, the test compound (1 μL) was first added (in duplicate) to reach a final concentration of 1 μM or 1×IC50 of the compound. The kinase (5 μL) was then added to each well to reach a final concentration of […] for the kinase domain or […] for the full-length domain. Each plate included a positive and negative controls in duplicate wells. Crebtide (2.5 μL) was then added to each well in duplicate to reach a final concentration of 50 nM. If the full-length kinase was used, the plates were incubated for 45 min at room temperature before proceeding further. ATP (2.5 μL) was added to each well to reach a final concentration of 1 μM for the kinase domain and 3 μM for the full-length.
After the addition of ATP, the plates were incubated for 45 min at room temperature. During the incubation, an EDTA solution (40 mM) and anti-Crebtide ([…]) were prepared. Additionally, a detection buffer stock solution was diluted ten fold before use.
After the incubation, the anti-Crebtide (5 μL) and EDTA (5 μL) were added to each well to reach their final concentrations of […] and 10 mM, respectively. The plates were allowed to develop at room temperature for 45 min. The plates were then read at 665 nm and 615 nm using Perkin Elmer Lance machine.
The biological results of inhibition of the kinase domain protein of RC kinase are summarized in Tables 2 and 3, wherein A represents at least 50% inhibition of the RC kinase activity at 1 μM; B represents no greater than 50% but at least 20% inhibition of the RC kinase activity at 1 μM; C represents no greater than 20% but at least 5% inhibition of the RC kinase activity at 1 μM; and D represents no greater than 5% inhibition of the RC kinase activity at 1 μM.

SMILES	inhibition at 1 µM [1]	melting point
COc1ccc(CNc2[nH]nc(Nc3cccc(Cl)c3)c2C(N)=O)c(C)c1 [Compound D73]	20 to 50%	195 to 199 °C
NC(=O)c1c(Nc2ccc(N3CCOCC3)c(Cl)c2)n[nH]c1NCc1ccc(O)cc1 [Compound D75, 3-((3-chloro-4-morpholinophenyl)amino)-5-((4-hydroxybenzyl)amino)-1H-pyrazole-4-carboxamide]	≥ 50%	162 to 168 °C
NC(=O)c1c(Nc2ccc3[nH]ncc3c2)n[nH]c1NCc1ccc(O)cc1 [Compound D76, 3-((1H-indazol-5-yl)amino)-5-((4-hydroxybenzyl)amino)-1H-pyrazole-4-carboxamide]	≥ 50%	250 to 260 °C
CC(C)N1CCN(c2ccc(Nc3n[nH]c(NCc4ccc(O)cc4)c3C(N)=O)cc2)CC1 [Compound D82, 5-((4-hydroxybenzyl)amino)-3-((4-(4-isopropylpiperazin-1-yl)phenyl)amino)-1H-pyrazole-4-carboxamide]	≥ 50%	210 to 220 °C
NC(=O)c1c(Nc2ccc(Cl)nc2)n[nH]c1NCc1ccc(O)cc1 [Compound D90, 3-((6-chloropyridin-3-yl)amino)-5-((4-hydroxybenzyl)amino)-1H-pyrazole-4-carboxamide]	≥ 50%	221 to 225 °C
NC(=O)c1c(Nc2ccc(C(F)(F)F)nc2)n[nH]c1NCc1ccc(O)cc1 [Compound D91]	≥ 50%	259 to 265 °C
COc1ccc(C(C)C)cc1CNc1[nH]nc(Nc2cccc(Cl)c2)c1C(N)=O [Compound D94]	20 to 50%	184 to 194 °C
NC(=O)c1c(Nc2cccc(Cl)c2)n[nH]c1NCc1cccs1 [Compound D95, 3-((3-chlorophenyl)amino)-5-((thiophen-2-ylmethyl)amino)-1H-pyrazole-4-carboxamide]	≤ 5%	222 to 227 °C
NC(=O)c1c(Nc2cccc(Cl)c2)n[nH]c1NCc1ccco1 [Compound D96, 3-((3-chlorophenyl)amino)-5-((furan-2-ylmethyl)amino)-1H-pyrazole-4-carboxamide]	20 to 50%	214 to 220 °C
NC(=O)c1c(Nc2cccc(Cl)c2)n[nH]c1NCc1ccoc1 [Compound D97]	5 to 20%	219 to 221 °C
Cc1cn(-c2ccc(Nc3n[nH]c(NCc4ccc(O)cc4)c3C(N)=O)cc2)cn1 [Compound D98, 5-((4-hydroxybenzyl)amino)-3-((4-(4-methyl-1H-imidazol-1-yl)phenyl)amino)-1H-pyrazole-4-carboxamide]	≥ 50%	257 to 260 °C
NC(=O)c1c(Nc2ccc(N3CCOC(=O)C3)cc2)n[nH]c1NCc1ccc(O)cc1 [Compound D99, 5-((4-hydroxybenzyl)amino)-3-((4-(2-oxomorpholino)phenyl)amino)-1H-pyrazole-4-carboxamide]	≥ 50%	194 to 197 °C
NC(=O)c1c(Nc2ccc(N3CCOCC3)c(F)c2)n[nH]c1NCc1ccc(O)cc1 [Compound D100]	≥ 50%	208 to 211 °C
NC(=O)c1c(Nc2ccc(N)cc2)n[nH]c1NCc1ccc(O)cc1 [Compound D101, 3-((4-aminophenyl)amino)-5-((4-hydroxybenzyl)amino)-1H-pyrazole-4-carboxamide]	≥ 50%	190 to 193 °C
CC1CCN(C2CCN(c3ccc(Nc4n[nH]c(NCc5ccc(O)cc5)c4C(N)=O)cc3)CC2)CC1 [Compound D102, 5-((4-hydroxybenzyl)amino)-3-((4-(4-methyl-[1,4′-bipiperidin]-1′-yl)phenyl)amino)-1H-pyrazole-4-carboxamide]	≥ 50%	220 to 224 °C

Second part, the compound after the results:

inhibition at 1 µM [1]	melting point	SMILES
20 to 50%	180 to 184 °C	COc1cc(CNc2[nH]nc(NCc3ccc(O)cc3)c2C(N)=O)ccc1F [Compound D105]
≥ 50%	270 to 275 °C	NC(=O)c1c(Nc2ccc(S(N)(=O)=O)cc2)n[nH]c1NCc1ccc(O)cc1 [Compound D107, 5-((4-hydroxybenzyl)amino)-3-((4-sulfamoylphenyl)amino)-1H-pyrazole-4-carboxamide]
≥ 50%	217 to 221 °C	NC(=O)c1c(Nc2ccc(-c3ccccn3)cc2)n[nH]c1NCc1ccc(O)cc1 [Compound D109]
≥ 50%	236 to 240 °C	NC(=O)c1c(Nc2ccc(N3CCN(C(=O)N4CCCCC4)CC3)cc2)n[nH]c1NCc1ccc(O)cc1 [Compound D110, 5-((4-hydroxybenzyl)amino)-3-((4-(4-(piperidine-1-carbonyl)piperazin-1-yl)phenyl)amino)-1H-pyrazole-4-carboxamide]
≥ 50%	258 to 266 °C	NC(=O)c1c(Nc2ccc(-c3cnco3)cc2)n[nH]c1NCc1ccc(O)cc1 [Compound D111]
20 to 50%	178 to 180 °C	COc1ccc(CNc2n[nH]c(NCc3ccc(O)cc3)c2C(N)=O)cn1 [Compound D112]
5 to 20%	263 to 267 °C	CS(=O)(=O)c1ccc(CNc2n[nH]c(NCc3ccc(O)cc3)c2C(N)=O)cc1 [Compound D113, 5-((4-hydroxybenzyl)amino)-3-((4-(methylsulfonyl)benzyl)amino)-1H-pyrazole-4-carboxamide]
≤ 5%	189 to 191 °C	NC(=O)c1c(NCc2c(F)cccc2F)n[nH]c1NCc1ccc(O)cc1 [Compound D114]
5 to 20%	215 to 218 °C	NC(=O)c1c(NCc2c(F)cccc2Cl)n[nH]c1NCc1ccc(O)cc1 [Compound D115]
≥ 50%	230 to 236 °C	CN1CCN(c2ccc(Nc3n[nH]c(NCc4ccc(O)cc4)c3C(N)=O)cc2Cl)CC1 [Compound D116]
≥ 50%	199 to 203 °C	NC(=O)c1c(Nc2ccc(N3CCOCC3)nc2)n[nH]c1NCc1ccc(O)cc1 [Compound D118]
≥ 50%	203 to 206 °C	CC1CCN(C2CCN(c3ccc(Nc4n[nH]c(NCc5ccc(O)cc5)c4C(N)=O)cn3)CC2)CC1 [Compound D119]
≥ 50%	241 to 244 °C	NC(=O)c1c(Nc2ccc(N3CCC(N4CCCC4)CC3)cc2)n[nH]c1NCc1ccc(O)cc1 [Compound D121]
5 to 20%	204 to 207 °C	NC(=O)c1c(NCc2ccc(Cl)c(F)c2)n[nH]c1NCc1ccc(O)cc1 [Compound D122]
≥ 50%	219 to 227 °C	NC(=O)c1c(Nc2ccc(N3CCN(c4ncccn4)CC3)cc2)n[nH]c1NCc1ccc(O)cc1 [Compound D124]
≥ 50%	216 to 220 °C	NC(=O)c1c(Nc2ccc(-c3cc(CO)c4ccccc4n3)cc2)n[nH]c1NCc1ccc(O)cc1 [Compound D125]
≥ 50%	184 to 188 °C	CN(C)c1ccc(Nc2n[nH]c(NCc3ccc(O)cc3)c2C(N)=O)cc1 [Compound D126, 3-((4-(dimethylamino)phenyl)amino)-5-((4-hydroxybenzyl)amino)-1H-pyrazole-4-carboxamide]
≥ 50%	216 to 220 °C	NC(=O)c1c(Nc2ccc(NC(=O)c3cccc(F)c3)cc2)n[nH]c1NCc1ccc(O)cc1 [Compound D131]
≥ 50%	227 to 231 °C	NC(=O)c1c(Nc2ccc(NC(=O)c3ccc(F)cc3)cc2)n[nH]c1NCc1ccc(O)cc1 [Compound D132, 3-((4-(4-fluorobenzamido)phenyl)amino)-5-((4-hydroxybenzyl)amino)-1H-pyrazole-4-carboxamide]
≥ 50%	222 to 226 °C	CC(C)(C)OC(=O)Nc1ccc(Nc2n[nH]c(NCc3ccc(O)cc3)c2C(N)=O)cc1 [Compound D135]
20 to 50%	200 to 204 °C	CC(C)c1ccc(Nc2n[nH]c(NCc3ccc(O)cc3)c2C(N)=O)cc1 [Compound D137, 5-((4-hydroxybenzyl)amino)-3-((4-isopropylphenyl)amino)-1H-pyrazole-4-carboxamide]
